In the supplement of paper PMC10307832:

What was measured:
Experiment in all cases: relative viability (nuclei count vs DMSO), 5 days (fraction); higher = more cells survive
AZD8055 + Alpelisib = compound: COc1ccc(-c2ccc3c(N4CCOC[C@@H]4C)nc(N4CCOC[C@@H]4C)nc3n2)cc1CO [AZD8055] + Cc1nc(NC(=O)N2CCC[C@H]2C(N)=O)sc1-c1ccnc(C(C)(C)C(F)(F)F)c1 [Alpelisib] (partner 2 µM)
In short: (§1)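 Cells from lung cancer lines were seeded into 1536-well plates and, one day later, dosed by pin tool. Treatments were either a single drug or a fixed dose of an anchor drug with five library-drug doses (not always all listed) in √10 steps. After 5 days, nuclei were stained in a one-step fixation (final 0.05% Triton X-100, 1% formaldehyde, 1 ug/ml Hoechst) and counted on 4× images, and relative viability is the treated-to-vehicle nuclei ratio, as the median of duplicate plates.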

AZD8055 + Bortezomib = compound: COc1ccc(-c2ccc3c(N4CCOC[C@@H]4C)nc(N4CCOC[C@@H]4C)nc3n2)cc1CO [AZD8055] + CC(C)C[C@H](NC(=O)[C@H](Cc1ccccc1)NC(=O)c1cnccn1)B(O)O [Bortezomib] (partner 0.002 µM)
In short: as §1

AZD8055 + Olaparib = compound: COc1ccc(-c2ccc3c(N4CCOC[C@@H]4C)nc(N4CCOC[C@@H]4C)nc3n2)cc1CO [AZD8055] + O=C(c1cc(Cc2n[nH]c(=O)c3ccccc23)ccc1F)N1CCN(C(=O)C2CC2)CC1 [Olaparib] (partner 8 µM)
In short: as §1

AZD8055 + Pemetrexed = compound: COc1ccc(-c2ccc3c(N4CCOC[C@@H]4C)nc(N4CCOC[C@@H]4C)nc3n2)cc1CO [AZD8055] + Nc1nc2[nH]cc(CCc3ccc(C(=O)N[C@@H](CCC(=O)O)C(=O)O)cc3)c2c(=O)[nH]1 [Pemetrexed] (partner 0.2 µM)
In short: as §1

Cell Line	relative viability (AZD8055 + Alpelisib; first compound 0.01 µM)	relative viability (AZD8055 + Alpelisib; first compound 0.03162 µM)	relative viability (AZD8055 + Alpelisib; first compound 0.1 µM)	relative viability (AZD8055 + Alpelisib; first compound 0.3162 µM)	relative viability (AZD8055 + Alpelisib; first compound 1 µM)	relative viability (AZD8055 + Bortezomib; first compound 0.01 µM)	relative viability (AZD8055 + Bortezomib; first compound 0.03162 µM)	relative viability (AZD8055 + Bortezomib; first compound 0.1 µM)	relative viability (AZD8055 + Bortezomib; first compound 0.3162 µM)	relative viability (AZD8055 + Bortezomib; first compound 1 µM)	relative viability (AZD8055 + Olaparib; first compound 0.01 µM)	relative viability (AZD8055 + Olaparib; first compound 0.03162 µM)	relative viability (AZD8055 + Olaparib; first compound 0.1 µM)	relative viability (AZD8055 + Olaparib; first compound 0.3162 µM)	relative viability (AZD8055 + Olaparib; first compound 1 µM)	relative viability (AZD8055 + Pemetrexed; first compound 0.01 µM)	relative viability (AZD8055 + Pemetrexed; first compound 0.03162 µM)	relative viability (AZD8055 + Pemetrexed; first compound 0.1 µM)	relative viability (AZD8055 + Pemetrexed; first compound 0.3162 µM)	relative viability (AZD8055 + Pemetrexed; first compound 1 µM)
NCI-H661	0.801	0.411	0.399	0.397	0.275	1.09	0.619	0.758	0.396	0.295	0.785	0.802	0.691	0.447	0.378	1.02	0.882	0.868	0.579	0.418
NCI-H838	0.981	0.781	0.412	0.276	0.288	1.37	0.513	0.302	0.227	0.298	0.687	0.597	0.351	0.259	0.29	0.228	0.236	0.231	0.18	0.201
NCI-H1355	0.677	0.472	0.332	0.215	0.222	1.23	1.06	0.9	0.309	0.315	0.694	0.622	0.553	0.269	0.266	1.06	0.91	0.772	0.316	0.235
NCI-H1437	0.802	0.808	0.697	0.178	0.159	0.611	0.549	0.422	0.206	0.209	0.696	0.658	0.601	0.457	0.311	0.324	0.308	0.276	0.23	0.224
NCI-H1651	1.04	0.716	0.671	0.405	0.325	1.12	0.914	0.924	0.609	0.696	0.193	0.191	0.193	0.222	0.25	0.645	0.585	0.477	0.388	0.367
NCI-H1666	0.884	0.696	0.621	0.47	0.438	0.932	0.65	0.62	0.483	0.469	0.875	0.81	0.771	0.714	0.674	0.917	0.878	0.895	0.751	0.716
NCI-H1734	0.762	0.554	0.378	0.226	0.23	0.954	0.729	0.552	0.278	0.274	0.675	0.555	0.458	0.298	0.199	0.45	0.375	0.41	0.385	0.323
NCI-H1755	0.879	0.744	0.607	0.378	0.363	0.98	0.879	0.75	0.459	0.359	0.767	0.765	0.677	0.446	0.378	0.462	0.423	0.384	0.424	0.461
NCI-H1792	0.447	0.482	0.361	0.131	0.108	0.93	0.771	0.827	0.173	0.189	0.503	0.379	0.0968	0.0717	0.108	0.764	0.343	0.193	0.108	0.108
NCI-H1915	1.12	0.941	0.996	0.645	0.455	1.09	0.961	1.02	0.663	0.652	0.257	0.262	0.289	0.238	0.204	0.52	0.5	0.507	0.419	0.372
NCI-H1975	0.454	0.365	0.259	0.249	0.231	0.409	0.303	0.282	0.206	0.216	0.976	0.677	0.464	0.221	0.189	0.311	0.301	0.264	0.206	0.167
NCI-H1993	0.679	0.629	0.632	0.623	0.638	0.886	0.706	0.599	0.568	0.586	1.02	0.793	0.602	0.409	0.434	0.519	0.542	0.459	0.434	0.473
NCI-H2009	1.14	1.03	0.931	0.583	0.401	1.14	0.649	0.845	0.35	0.264	0.677	0.861	0.634	0.344	0.254	1.08	1.06	1.03	0.722	0.263
NCI-H2023	0.439	0.431	0.311	0.141	0.141	0.837	0.664	0.356	0.136	0.137	0.434	0.402	0.224	0.148	0.142	0.229	0.205	0.16	0.0973	0.122
NCI-H2085	0.896	0.758	0.575	0.382	0.372	1.11	0.859	0.705	0.407	0.357	0.858	0.822	0.553	0.387	0.354	0.827	0.74	0.481	0.31	0.268
NCI-H2087	0.996	0.924	0.809	0.44	0.381	0.783	0.992	0.796	0.441	0.252	0.625	0.519	0.451	0.263	0.217	0.646	0.587	0.588	0.427	0.292
NCI-H2126	0.75	0.655	0.601	0.382	0.371	1.14	1.08	1.05	0.676	0.638	0.916	0.833	0.709	0.493	0.363	0.693	0.622	0.649	0.579	0.401
NCI-H2228	0.621	0.297	0.222	0.19	0.272	0.877	0.507	0.315	0.198	0.29	0.763	0.432	0.217	0.187	0.228	0.41	0.345	0.233	0.171	0.171
NCI-H2347	1.19	0.934	0.674	0.467	0.413	0.704	0.944	0.598	0.438	0.401	0.57	0.491	0.502	0.328	0.395	0.456	0.449	0.442	0.414	0.435
NCI-H2405	0.757	0.655	0.442	0.293	0.291	1	0.975	0.906	0.46	0.414	0.904	0.851	0.772	0.359	0.35	1.06	0.987	0.803	0.34	0.342
NCI-H3122	0.737	0.541	0.34	0.309	0.251	1.14	0.998	1.09	0.728	0.657	0.775	0.697	0.689	0.338	0.283	0.229	0.228	0.231	0.227	0.225
PC-3 [JPC-3]	1.17	1.06	0.972	0.555	0.47	0.911	0.872	0.83	0.687	0.555	1.19	1.26	1.13	0.798	0.61	1.17	1.09	0.877	0.622	0.454
PC-14	0.977	0.913	0.795	0.316	0.155	1.13	1.05	0.737	0.272	0.246	0.461	0.401	0.321	0.163	0.142	0.153	0.214	0.178	0.212	0.162
RERF-LC-KJ	0.77	0.576	0.552	0.4	0.442	1.18	0.921	0.748	0.528	0.569	0.963	1.08	0.669	0.429	0.404	0.51	0.499	0.428	0.396	0.373
SK-LU-1	1.03	0.643	0.384	0.687	0.342	1.25	1.06	0.74	0.481	0.422	0.442	0.412	0.345	0.305	0.254	1.09	0.874	0.69	0.444	0.371
SW 1573	0.707	0.51	0.55	0.301	0.211	1.16	0.826	0.711	0.286	0.255	0.555	0.417	0.325	0.17	0.16	0.938	0.728	0.653	0.285	0.18
UMC-11	1.06	0.737	0.549	0.232	0.22	0.824	0.662	0.397	0.215	0.195	0.376	0.323	0.335	0.223	0.269	0.76	0.629	0.525	0.302	0.264
